Values after ≈ are worked out from the molar mass of the structure shown.
Experiments:
[1] = tested on: Escherichia coli; assay: Antibacterial activity against Escherichia coli DH5alpha producing beta-lactamase TEM-1 by microdilution method; format: functional
[2] = tested on: Escherichia coli; assay: Antibacterial activity against rifampin-resistant Escherichia coli C600 by microdilution method; format: functional
[3] = tested on: Escherichia coli; assay: Antibacterial activity against Escherichia coli DH5alpha producing beta-lactamase TEM-35 by microdilution method; format: functional
[4] = tested on: Escherichia coli; assay: Antibacterial activity against Escherichia coli DH5alpha producing beta-lactamase TEM-12 by microdilution method; format: functional
[5] = tested on: Escherichia coli; assay: Antibacterial activity against rifampin-resistant Escherichia coli C600 transconjugant producing beta-lactamase of pI 5.2 by microdilution method; format: functional
[6] = tested on: Escherichia coli; assay: Antibacterial activity against Escherichia coli BER1 producing beta-lactamase pI 5.2 and pI 5.4 by microdilution method; format: functional
[7] = tested on: Escherichia coli; assay: Antibacterial activity against Escherichia coli DH5alpha producing beta-lactamase TEM-158 by microdilution method; format: functional
[8] = tested on: Escherichia coli; assay: Antibacterial activity against Escherichia coli DH5alpha by microdilution method; format: functional
[9] = Inhibition of Escherichia coli TO799 beta-lactamase TEM-125 after 10 mins
[10] = Inhibition of Escherichia coli DH5alpha beta-lactamase TEM-12
[11] = Inhibition of Escherichia coli DH10B beta-lactamase TEM-121 after 10 mins; set-up: species or system Escherichia coli str. K-12 substr. DH10B
[12] = Inhibition of Escherichia coli DH5alpha CL1179 clone beta-lactamase TEM-152 after 10 mins
[13] = Inhibition of Escherichia coli CF0042 beta-lactamase TEM-35

IC50 [9] [nM]	IC50 [11] [nM]	IC50 [12] [nM]	Compound	MIC [1] [µg/mL]	MIC [2] [µg/mL]	MIC [3] [µg/mL]	MIC [4] [µg/mL]	MIC [5] [µg/mL]	MIC [6] [µg/mL]	MIC [7] [µg/mL]	MIC [8] [µg/mL]	IC50 [10] [nM]	IC50 [13] [nM]
			CO/N=C(\C(=O)N[C@@H]1C(=O)N2C(C(=O)[O-])=C(C[N+]3(C)CCCC3)CS[C@H]12)c1csc(N)n1	< 0.06	< 0.06	< 0.06	1 (≈ 2.08 µM)	4 (≈ 8.32 µM)	4 (≈ 8.32 µM)	4 (≈ 8.32 µM)	< 0.06		
			CC1(C)S[C@@H]2[C@H](NC(=O)[C@H](N)c3ccc(O)cc3)C(=O)N2[C@H]1C(=O)O [AMOXICILLIN]	> 2050	4 (≈ 10.9 µM)	> 2050	> 2050	> 2050	> 2050	> 2050	4 (≈ 10.9 µM)		
			C[C@H]1[C@H](NC(=O)/C(=N\OC(C)(C)C(=O)O)c2csc(N)n2)C(=O)N1S(=O)(=O)O [AZTREONAM]				4 (≈ 9.19 µM)	1 (≈ 2.3 µM)	1 (≈ 2.3 µM)	1 (≈ 2.3 µM)			
			CO/N=C(\C(=O)N[C@@H]1C(=O)N2C(C(=O)O)=C(COC(C)=O)CS[C@H]12)c1csc(N)n1 [CEFOTAXIME]	0.06 (≈ 0.132 µM)	0.06 (≈ 0.132 µM)	0.06 (≈ 0.132 µM)	0.12 (≈ 0.263 µM)	0.25 (≈ 0.549 µM)	0.25 (≈ 0.549 µM)	0.25 (≈ 0.549 µM)	0.06 (≈ 0.132 µM)		
			CO[C@@]1(NC(=O)Cc2cccs2)C(=O)N2C(C(=O)O)=C(COC(N)=O)CS[C@@H]21 [CEFOXITIN]	4 (≈ 9.36 µM)	4 (≈ 9.36 µM)	4 (≈ 9.36 µM)	4 (≈ 9.36 µM)	4 (≈ 9.36 µM)	0.25 (≈ 0.585 µM)	4 (≈ 9.36 µM)	4 (≈ 9.36 µM)		
			CC(C)(O/N=C(\C(=O)N[C@@H]1C(=O)N2C(C(=O)[O-])=C(C[n+]3ccccc3)CS[C@H]12)c1csc(N)n1)C(=O)O [CEFTAZIDIME]	0.12 (≈ 0.22 µM)	0.12 (≈ 0.22 µM)	0.25 (≈ 0.457 µM)	32 (≈ 58.5 µM)	16 (≈ 29.3 µM)	16 (≈ 29.3 µM)	32 (≈ 58.5 µM)	0.12 (≈ 0.22 µM)		
			CO/N=C(\C(=O)N[C@@H]1C(=O)N2C(C(=O)O)=C(COC(N)=O)CS[C@H]12)c1ccco1 [CEFUROXIME]	4 (≈ 9.43 µM)	4 (≈ 9.43 µM)	8 (≈ 18.9 µM)	8 (≈ 18.9 µM)	4 (≈ 9.43 µM)	8 (≈ 18.9 µM)	8 (≈ 18.9 µM)	4 (≈ 9.43 µM)		
			CC(=O)OCC1=C(C(=O)O)N2C(=O)[C@@H](NC(=O)Cc3cccs3)[C@H]2SC1 [CEPHALOTHIN]	4 (≈ 10.1 µM)	4 (≈ 10.1 µM)	16 (≈ 40.4 µM)	8 (≈ 20.2 µM)	16 (≈ 40.4 µM)	32 (≈ 80.7 µM)	32 (≈ 80.7 µM)	4 (≈ 10.1 µM)		
13600	1000	1000	O=C(O)[C@H]1/C(=C/CO)O[C@@H]2CC(=O)N21 [CLAVULANIC ACID]									20	27000
			C[C@@H](O)[C@H]1C(=O)N2C(C(=O)O)=C(SCCNC=N)C[C@H]12 [IMIPENEM ANHYDROUS]				0.25 (≈ 0.835 µM)						
			CCN1CCN(C(=O)N[C@@H](C(=O)N[C@@H]2C(=O)N3[C@@H]2SC(C)(C)[C@@H]3C(=O)O)c2ccccc2)C(=O)C1=O [PIPERACILLIN]	512 (≈ 989 µM)	2 (≈ 3.86 µM)	> 2050	> 2050	2050 (≈ 3960 µM)	2050 (≈ 3960 µM)	2050 (≈ 3960 µM)	2 (≈ 3.86 µM)		
			C[C@]1(Cn2ccnn2)[C@H](C(=O)O)N2C(=O)C[C@H]2S1(=O)=O [TAZOBACTAM]									130	1800
			CC1(C)S[C@@H]2[C@H](NC(=O)[C@H](C(=O)O)c3ccsc3)C(=O)N2[C@H]1C(=O)O [TICARCILLIN]	> 2050	2 (≈ 5.2 µM)	> 2050	> 2050	> 2050	> 2050	> 2050	2 (≈ 5.2 µM)		
